Test results published in patent US6528494B2 (priority 1996, dated 2003).
Structures can show the parent of a compound that is named as a salt.

Tests used:
Type in all cases: cell-based
[1] = molecular target: T1, adenosine 1 receptor (Homo sapiens, UniProt P30542); experiment: Agonist activity against adenosine 1 receptor (CHO cells, forskolin-enhanced cAMP/SPAP reporter); conditions: CHO cells transfected with human receptor; forskolin-enhanced cAMP via SPAP; mean of all the versions tested
T1 sequence (P30542 1-326): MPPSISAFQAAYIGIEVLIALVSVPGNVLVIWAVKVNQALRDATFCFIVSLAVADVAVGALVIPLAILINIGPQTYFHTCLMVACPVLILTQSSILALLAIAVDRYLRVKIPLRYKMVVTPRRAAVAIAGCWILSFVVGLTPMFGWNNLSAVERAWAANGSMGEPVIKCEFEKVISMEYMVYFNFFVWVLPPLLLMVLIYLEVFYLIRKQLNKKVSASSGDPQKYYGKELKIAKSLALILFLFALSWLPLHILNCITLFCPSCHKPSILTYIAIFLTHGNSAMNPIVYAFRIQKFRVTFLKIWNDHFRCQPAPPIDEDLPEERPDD
Procedure: (§1) (1) Agonist activity against adenosine 2a, adenosine 1 and adenosine 3 receptor subtypes.
(§2) The effect of test compounds was determined by their effects on basal levels of cAMP (A2a) or on forskolin-enhanced cAMP (A1 and A3) as reflected by changes in levels of SPAP.

[2] = molecular target: adenosine 2a receptor (Homo sapiens, UniProt P29274); experiment: Agonist activity against adenosine 2a receptor (CHO cells, cAMP/SPAP reporter); conditions: CHO cells transfected with human receptor; basal cAMP via SPAP; mean of all the versions tested
Chain of adenosine 2a receptor (P29274 whole entry): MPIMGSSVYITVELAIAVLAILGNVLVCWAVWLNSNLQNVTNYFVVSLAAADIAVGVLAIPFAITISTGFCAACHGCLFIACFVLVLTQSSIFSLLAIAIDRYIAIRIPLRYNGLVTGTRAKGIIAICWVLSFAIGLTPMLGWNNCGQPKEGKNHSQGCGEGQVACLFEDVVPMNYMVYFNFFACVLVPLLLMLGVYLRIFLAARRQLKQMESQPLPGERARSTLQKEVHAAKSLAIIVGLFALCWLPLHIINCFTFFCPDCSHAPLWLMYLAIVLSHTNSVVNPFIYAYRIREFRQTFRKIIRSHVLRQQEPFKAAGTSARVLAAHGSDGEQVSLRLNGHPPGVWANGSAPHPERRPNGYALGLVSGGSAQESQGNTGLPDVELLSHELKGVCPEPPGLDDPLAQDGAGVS
Procedure: as §1, §2

[3] = molecular target: T2, adenosine 3 receptor (Homo sapiens, UniProt P0DMS8); experiment: Agonist activity against adenosine 3 receptor (CHO cells, forskolin-enhanced cAMP/SPAP reporter); conditions: CHO cells transfected with human receptor; forskolin-enhanced cAMP via SPAP; mean of all the versions tested
T2 sequence (P0DMS8 1-318): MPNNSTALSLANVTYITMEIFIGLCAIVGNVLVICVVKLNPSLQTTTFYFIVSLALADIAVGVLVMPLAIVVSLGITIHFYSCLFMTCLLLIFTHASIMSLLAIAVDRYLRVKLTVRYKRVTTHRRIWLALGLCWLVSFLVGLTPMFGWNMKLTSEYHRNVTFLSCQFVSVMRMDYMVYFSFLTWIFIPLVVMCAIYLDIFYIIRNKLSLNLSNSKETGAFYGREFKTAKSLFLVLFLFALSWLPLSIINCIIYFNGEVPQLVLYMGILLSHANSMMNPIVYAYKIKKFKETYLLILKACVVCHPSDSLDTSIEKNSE
Procedure: as §1, §2

CCn1nnc([C@H]2O[C@@H](n3cnc4c(NCC(c5ccccc5)c5ccccc5)nc(NC5CCSCC5)nc43)[C@H](O)[C@@H]2O)n1.O=C(O)C(F)(F)F [Example 114]
A1 EC50 as a ratio of that of NECA [1]: 242.2 | A2a EC50 as a ratio of that of NECA [2]: 0.58 | A3 EC50 as a ratio of that of NECA [3]: >2972.0

Cn1nnc(C2OC(n3cnc4c(NC5CCCC5)nc(NCCN5CCCCC5)nc43)C(O)C2O)n1.O=CO.O=CO [Example 25, (2R,3R,4S,5R)-2-[6-Cyclopentylamino-2-(2-piperidin-1-yl-ethylamino)-purin-9-yl]-5-(2-methyl-2H-tetrazol-5-yl)-tetrahydro-furan-3,4-diol Diformate]
A1 EC50 as a ratio of that of NECA [1]: 211.8 | A2a EC50 as a ratio of that of NECA [2]: 0.56 | A3 EC50 as a ratio of that of NECA [3]: >388

CCn1nnc([C@H]2O[C@@H](n3cnc4c(N)nc(NCCc5cn(C)cn5)nc43)[C@H](O)[C@@H]2O)n1.O=CO [Example 54, (2R,3R,4S,5R)-2-{6-Amino-2-[2-(1-methyl-1H-imidazol-4-yl)-ethylamino]-purin-9-yl}-5-(2-ethyl-2H-tetrazol-5-yl)-tetrahydro-furan-3,4-diol Formate]
A1 EC50 as a ratio of that of NECA [1]: 267.60 | A2a EC50 as a ratio of that of NECA [2]: 1.16 | A3 EC50 as a ratio of that of NECA [3]: >175

CCn1nnc([C@H]2O[C@@H](n3cnc4c(NCCc5ccccc5)nc(NCCN5CCOCC5)nc43)[C@H](O)[C@@H]2O)n1 [Example 49, (2R,3S,4R,5R)-2-(2-Ethyl-2H-tetrazol-5-yl)-5-[2-(2-morpholin-4-yl-ethylamino)-6-phenethylamino-purin-9-yl]-tetrahydro-furan-3,4-diol]
A1 EC50 as a ratio of that of NECA [1]: 158.70 | A2a EC50 as a ratio of that of NECA [2]: 3.28 | A3 EC50 as a ratio of that of NECA [3]: >214

CCn1nnc(C2OC(n3cnc4c(NC5CCCC5)nc(NC(CO)Cc5ccccc5)nc43)C(O)C2O)n1 [Example 71, (2R,3R,4S,5R)-2-[6-Cyclopentylamino-2-(1S-hydroxymethyl-2-phenyl-ethylamino)-purin-9-yl]-5-(2-ethyl-2H-tetrazol-5-yl)-tetrahydro-furan-3,4-diol Formate]
A1 EC50 as a ratio of that of NECA [1]: 14.78 | A2a EC50 as a ratio of that of NECA [2]: 1.99 | A3 EC50 as a ratio of that of NECA [3]: >158

CCC(CC)Nc1nc(NC2CCC(N)CC2)nc2c1ncn2C1OC(c2nnn(C)n2)C(O)C1O.O=CO.O=CO [Example 87, (2R,3R,4S,5R)-2-[2-(trans-4-Amino-cyclohexylamino)-6-(1-ethyl-propylamino)-purin-9-yl]-5-(2-methyl-2H-tetrazol-5-yl)-tetrahydro-furan-3,4-diol Diformate]
A1 EC50 as a ratio of that of NECA [1]: 348.11 | A2a EC50 as a ratio of that of NECA [2]: 1.61 | A3 EC50 as a ratio of that of NECA [3]: >320

Cn1nnc([C@H]2O[C@@H](n3cnc4c(N)nc(NC5CC6CCC5C6)nc43)[C@H](O)[C@@H]2O)n1.O=CO (stereo partly drawn) [Example 39, (2R,3R,4S,5R)-2-[6-Amino-2-(bicyclo[2.2.1]hept-2-ylamino)-purin-9-yl]-5-(2-methyl-2H-tetrazol-5-yl)-tetrahydro-furan-3,4-diol Formate]
A1 EC50 as a ratio of that of NECA [1]: 1429 | A2a EC50 as a ratio of that of NECA [2]: 0.31 | A3 EC50 as a ratio of that of NECA [3]: >315

CCn1nnc(C2OC(n3cnc4c(NC(CO)Cc5ccccc5)nc(NCCc5cn(C)cn5)nc43)C(O)C2O)n1 [Example 8, (2R,3S,4R,5R)-2-(2-Ethyl-2H-tetrazol-5-yl)-5-{6-(1S-hydroxymethyl-2-phenyl-ethylamino)-2-[2-(1-methyl-1H-imidazol-4-yl)-ethylamino]-purin-9-yl}-tetrahydro-furan-3,4-diol Acetate]
A1 EC50 as a ratio of that of NECA [1]: 12.6 | A2a EC50 as a ratio of that of NECA [2]: 0.1 | A3 EC50 as a ratio of that of NECA [3]: >133

CCn1nnc(C2OC(n3cnc4c(NCC(c5ccccc5)c5ccccc5)nc(NCCNC(=N)N)nc43)C(O)C2O)n1 (stereo not drawn) [Example 82, N-(2-{6-(2,2-Diphenyl-ethylamino)-9-[5R-(2-ethyl-2H-tetrazol-5-yl)-3R,4S-Dihydroxy-tetrahydro-furan-2R-yl]-9H-purin-2-ylamino}-ethyl)-guanidine bis(Trifluoroacetate)]
A1 EC50 as a ratio of that of NECA [1]: 520.50 | A2a EC50 as a ratio of that of NECA [2]: 5.56 | A3 EC50 as a ratio of that of NECA [3]: >189

Cn1nnc(C2OC(n3cnc4c(NCC(c5ccccc5)c5ccccc5)nc(NCCN5CCCCC5)nc43)C(O)C2O)n1.O=CO.O=CO (stereo not drawn) [Example 26]
A1 EC50 as a ratio of that of NECA [1]: 241.4 | A2a EC50 as a ratio of that of NECA [2]: 0.86 | A3 EC50 as a ratio of that of NECA [3]: >329

CCn1nnc(C2OC(n3cnc4c(NC5CCCC5)nc(NCCN5CCCCC5)nc43)C(O)C2O)n1.O=CO.O=CO [Example 104, (2R,3R,4S,5R)-2-[6-Cyclopentylamino-2-(2-piperidin-1-yl-ethylamino)-purin-9-yl]-5-(2-ethyl-2H-tetrazol-5-yl)-tetrahydro-furan-3,4-diol bis(Formate)]
A1 EC50 as a ratio of that of NECA [1]: 113.40 | A2a EC50 as a ratio of that of NECA [2]: 4.04 | A3 EC50 as a ratio of that of NECA [3]: >235

CCn1nnc([C@H]2O[C@@H](n3cnc4c(NCc5ccccc5)nc(NCCc5cn(C)cn5)nc43)[C@H](O)[C@@H]2O)n1 [Example 5, (2R,3R,4S,5R)-2-{6-Benzylamino-2-[2-(1-methyl-1H-imidazol-4-yl)-ethylamino]-purin-9-yl}-5-(2-ethyl-2H-tetrazol-5-yl)-tetrahydro-furan-3,4-diol]
A1 EC50 as a ratio of that of NECA [1]: 700.4 | A2a EC50 as a ratio of that of NECA [2]: 0.76 | A3 EC50 as a ratio of that of NECA [3]: >181

CCn1nnc([C@H]2O[C@@H](n3cnc4c(N)nc(NCCNc5ccccn5)nc43)[C@H](O)[C@@H]2O)n1.O=C(O)C(F)(F)F [Example 55, (2R,3R,4S,5R)-2-{6-Amino-2-[2-(pyridin-2-ylamino)-ethylamino)-purin-9-yl}-5-(2-ethyl-2H-tetrazol-5-yl)-tetrahydro-furan-3,4-diol Trifluoroacetate]
A1 EC50 as a ratio of that of NECA [1]: 1136.00 | A2a EC50 as a ratio of that of NECA [2]: 5.77 | A3 EC50 as a ratio of that of NECA [3]: >435

CCn1nnc(C2OC(n3cnc4c(NC5CCCC5)nc(NCCc5cn(C)cn5)nc43)C(O)C2O)n1 [Example 7, (2R,3R,4S,5R)-(2-{6-Cyclopentylamino-2-[2-(1-methyl-1H-imidazol-4-yl)-ethylamino]-purin-9-yl}-5-(2-ethyl-2H-tetrazol-5-yl)-tetrahydro-furan-3,4-diol Acetate]
A1 EC50 as a ratio of that of NECA [1]: 26.2 | A2a EC50 as a ratio of that of NECA [2]: 0.12 | A3 EC50 as a ratio of that of NECA [3]: >161

CC(=O)O.CCn1nnc([C@H]2O[C@@H](n3cnc4c(NCCC(C)(C)C)nc(NCCc5cn(C)cn5)nc43)[C@H](O)[C@@H]2O)n1 [Example 9, (2R,3R,4S,5R)-2-{6-(3,3-Dimethyl-butylamino)-2-[2-(1-methyl-1H-imidazol-4-yl)-ethylamino]-purin-9-yl}-5-(2-ethyl-2H-tetrazol-5-yl)-tetrahydro-furan-3,4-diol Acetate]
A1 EC50 as a ratio of that of NECA [1]: 377 | A2a EC50 as a ratio of that of NECA [2]: 0.45 | A3 EC50 as a ratio of that of NECA [3]: >42

Cn1nnc(C2OC(n3cnc4c(NCc5cccc(I)c5)nc(NCCN5CCCC5)nc43)C(O)C2O)n1.O=CO.O=CO [Example 108, (2R,3R,4S,5R)-2-[6-(3-Iodo-benzylamino)-2-(2-pyrrolidin-1-yl-ethylamino)-purin-9-yl]-5-(2-methyl-2H-tetrazol-5-yl)-tetrahydro-furan-3,4-diol bis(Formate)]
A1 EC50 as a ratio of that of NECA [1]: 111.30 | A2a EC50 as a ratio of that of NECA [2]: 2.25 | A3 EC50 as a ratio of that of NECA [3]: >201

CC(C)n1nnc([C@H]2O[C@@H](n3cnc4c(NC5CCCC5)nc(NCCc5cn(C)cn5)nc43)[C@H](O)[C@@H]2O)n1.O=CO [Example 41, (2R,3R,4S,5R)-2-{6-Cyclopentylamino-2-[2-(1-methyl-1H-imidazol-4-yl)-ethylamino]-purin-9-yl}-5-(2-isopropyl-2H-tetrazol-5-yl)-tetrahydro-furan-3,4-diol Formate]
A1 EC50 as a ratio of that of NECA [1]: 28.9 | A2a EC50 as a ratio of that of NECA [2]: 0.73 | A3 EC50 as a ratio of that of NECA [3]: >232
